Here are results for eight compounds from patent US6103761A, “Agents acting at cholecystokinin receptors” (Warner-Lambert Company, priority 1994, dated 2000).

Usually Ki stands for the equilibrium dissociation constant of an inhibitor or competing ligand from its target.

For this assay, the target named is T1, CCK-B receptor (Mus musculus, UniProt P56481).
T1 construct: from tissue; host or cells: cerebral cortex membranes of male CFLP mice
T1 sequence (P56481 1-453): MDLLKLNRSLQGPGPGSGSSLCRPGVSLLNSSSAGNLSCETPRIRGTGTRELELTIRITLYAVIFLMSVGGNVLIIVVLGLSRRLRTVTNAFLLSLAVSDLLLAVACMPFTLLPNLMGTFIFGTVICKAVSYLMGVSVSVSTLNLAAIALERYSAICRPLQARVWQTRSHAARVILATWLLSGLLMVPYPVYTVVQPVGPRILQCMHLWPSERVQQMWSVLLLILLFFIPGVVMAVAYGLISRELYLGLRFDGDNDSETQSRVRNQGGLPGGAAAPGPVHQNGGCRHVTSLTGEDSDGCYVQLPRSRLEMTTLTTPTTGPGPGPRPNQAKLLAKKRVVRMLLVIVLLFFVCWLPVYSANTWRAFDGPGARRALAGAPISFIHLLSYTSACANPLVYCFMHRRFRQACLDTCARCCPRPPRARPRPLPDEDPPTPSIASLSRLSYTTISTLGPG
As to the kind of experiment: Displacement of tritiated-pentagastrin binding to mouse cerebral cortical membranes (CCK receptor binding). The note with it: displacement of 2 nM tritiated-pentagastrin, Ki by Cheng-Prusoff equation, read-out: Ki, Binding Affinity CCK-B. On the set-up: species or system male CFLP mice. The procedure: The biological activity of compounds of the present invention was evaluated employing an initial screening test which rapidly and accurately measured the binding of the tested compound to known CCK receptor sites. […] (See Hays, et al., Neuropeptides 1980;1:53-62; and Satuer, et al., Science 1980;208:1155-6.)
In this screening test, the cerebral cortices taken from male CFLP mice weighing between 30-40 g were dissected on ice, weighed, and homogenized in 10 volumes of 50 mM Tris-HCl buffer (pH 7.4 at 0-4° C.). The resulting suspension was centrifuged, the supernate was discarded, and the pellet was washed by resuspension in Tris-HCl buffer followed by recentrifugation. The final pellet was resuspended in 20 volumes of […] buffer (pH 7.2 at 23° C.) containing 130 mM NaCl, […], […], […], 5 mg/mL bovine albumin, and bacitracin (0.25 mg/mL).
In saturation studies, cerebral cortical membranes were incubated at 23° C. for 120 minutes in a final volume of 500 μL of Hepes incubation buffer (pH 7.2) together with 0.2-20 nM tritiated-pentagastrin (Amersham International, England).
In the displacement experiments, membranes were incubated with a single concentration (2 nM) of ligand, together with increasing concentrations ([…]) of competitive test compound. In each case, the nonspecific binding was defined as that persisting in the presence of the unlabeled octapeptide CCK26-33 (10^-6 M).
Following incubation, radioactivity bound to membranes was separated from that free in solution by rapid filtration through Whatman GF/B filters and washed three times with 4 mL of ice cold Tris-HCl buffer. Filters from samples incubated with tritiated-pentagastrin were placed in polyethylene vials with 4 mL of scintillation cocktail, and the radioactivity was estimated by liquid scintillation spectrometry (efficiency 47%-52%).
The specific binding to CCK receptor sites was defined as the total bound tritiated-pentagastrin minus the amount of tritiated-pentagastrin bound in the presence of 10^-6 octapeptide, CCK26-33.
Saturation curves for specific tritiated-pentagastrin binding to mouse cortical membranes were analyzed by the methods of Scatchard (Ann New York Acad Sci 1949;51:660-72, and Hill, J Physiol 1910;40:IV-VIII), to provide estimates for the maximum number of binding sites (Bmax) and the equilibrium dissociation constant ([…]).
In displacement experiments, inhibition curves were analyzed by either logit-log plots or the iterative curve fitting computer program ALLFIT (DeLean, Munson, Redbard, 1978) to provide estimates of the IC50 and nH (apparent Hill coefficient) values). (IC50 values were defined as the concentration of test compound required to produce 50% inhibition of specific binding.)
The inhibition constant (Ki) of the test compound was then calculated according to the Cheng-Prusoff equation: [formula] where [L] is the concentration of radiolabel and Ka is the equilibrium dissociation constant.
Turning to `O=C(Nc1ccc(Cl)cc1)N[C@H](c1ccccc1)[C@H](NC(=O)Nc1ccc(C(F)(F)F)cc1)c1ccccc1` (relative stereo) [Example 10, [R-(R*,R*)] and [S-(R*,R*)]-N-(4-chlorophenyl)-N'-[1,2-diphenyl-2-[[[[4-(trifluoromethyl)phenyl]amino]-carbonyl]amino]ethyl]-urea], the Ki was 0.371 µM.

Turning to `Cc1ccc(S(=O)(=O)NC(=O)N[C@H](c2ccccc2)[C@H](NC(=O)Nc2ccc(C(F)(F)F)cc2)c2ccccc2)cc1` (relative stereo) [Example 14, [S-(R*,R*)] and [R-(R*,R*)]-N-[[[1,2-diphenyl-2-[[[[4-(trifluoromethyl)phenyl]amino]carbonyl]amino]-ethyl]amino]carbonyl]-4-methyl-benzenesulfonamide], the inhibitory constant (Ki) came to 0.188 µM.

In the case of `O=C(Nc1ccc([N+](=O)[O-])cc1)N[C@H](c1ccccc1)[C@H](NC(=O)Nc1ccc(C(F)(F)F)cc1)c1ccccc1` (relative stereo) [Example 15, [S-(R*,R*)] and [R-(R*,R*)]-N-[1,2-diphenyl-2-[[[[4-(trifluoromethyl)phenyl]amino]carbonyl]amino]-ethyl]-N'-(4-nitrophenyl)urea], the Ki was 0.309 µM.

Take `Cc1ccc(S(=O)(=O)NC(=O)N[C@H](c2ccccc2)[C@H](NC(=O)Nc2ccc(Cl)cc2)c2ccccc2)cc1` (relative stereo) [Example 46, [R-(R*,R*)] and [S-(R*,R*)]-N-[[[2-[[[(4-chlorophenyl)-amino]carbonyl]amino]-1,2-diphenylethyl]amino]-carbonyl]-4-methyl-benzenesulfonamide]: the Ki came out at 0.188 µM.

As for `O=C(Nc1ccc(Cl)cc1)N[C@H](c1ccccc1)[C@H](NC(=O)NS(=O)(=O)c1ccccc1)c1ccccc1` (relative stereo) [Example 47, [R-(R*,R*)] and [S-(R*,R*)]-N-[[[2-[[[4-chlorophenyl)-amino]carbonyl]amino]-1,2-diphenylethyl]amino]-carbonyl]benzenesulfonamide], the inhibition constant Ki was found to be 0.29 µM.

`Cc1ccc(NC(=O)N[C@H](c2ccccc2)[C@H](NC(=O)NS(=O)(=O)c2ccc(C)cc2)c2ccccc2)cc1` (relative stereo) [Example 54, [R-(R*,R*)] and [S-(R*,R*)]-4-methyl-N-[[[2-[[[(4-methylphenyl)amino]carbonyl]amino]-1,2-diphenylethyl]amino]carbonyl]benzenesulfonamide]: the Ki turned out to be 0.178 µM.

With `Cc1ccc(S(=O)(=O)NC(=O)N[C@@H](c2ccccc2)[C@@H](NC(=O)Nc2ccc(Cl)cc2)c2ccccc2)cc1` [Example 64, (+)-[S-(R*,R*)]-N-[[[2-[[[(4-chlorophenyl)amino]-carbonyl]amino]-1,2-diphenylethyl]amino]carbonyl]-4-methyl-urea], the inhibitory constant (Ki) was 0.093 µM.

On to `O=C(Nc1ccc(Cl)cc1)N[C@@H](c1ccccc1)[C@@H](NC(=O)Nc1ccc(C(F)(F)F)cc1)c1ccccc1` [Example 65, (+)-[S-(R*,R*)]-N-(4-chlorophenyl)-N'-[1,2-diphenyl]-2-[[[[4-(trifluoromethyl)phenyl]amino]carbonyl]amino]-ethyl]urea], for which the Ki was found to be 0.293 µM.
